In ChEMBL document CHEMBL1201862, “PubChem BioAssay data set” (2004):
Values belong to the compound of their own block, whether it stands above or below them. Activity calls are given as the source filed them.

Assays:
HEK293 [1] = assay: NOD2 signaling inhibitors in MDP-stimulated cells, cell-based, uHTS, luminescence (AID 2001); type: functional; conditions: Homo sapiens
[2] = DRD fibroblast viability loss – cell-based, non-viral oncogenic, luminescence, dose response (AID 1934); type: functional; conditions: Homo sapiens
[3] = Luminescence-based dose response cell-based high throughput screening assay for cytotoxic compounds using the IEC-6 intestinal epithelial cell line. [Related pubchem assays: 1858 (Summary AID.), 1825 (Counterscreen.), 1907 (Confirmation screen.)]; type: functional
[4] = target: Luciferin 4-monooxygenase (Photinus pyralis, UniProt P08659); assay: Counter Screen for Luciferase-based Assay Positives. [Related pubchem assays: 620, 618, 411 ]
Chain of Luciferin 4-monooxygenase (P08659 whole entry): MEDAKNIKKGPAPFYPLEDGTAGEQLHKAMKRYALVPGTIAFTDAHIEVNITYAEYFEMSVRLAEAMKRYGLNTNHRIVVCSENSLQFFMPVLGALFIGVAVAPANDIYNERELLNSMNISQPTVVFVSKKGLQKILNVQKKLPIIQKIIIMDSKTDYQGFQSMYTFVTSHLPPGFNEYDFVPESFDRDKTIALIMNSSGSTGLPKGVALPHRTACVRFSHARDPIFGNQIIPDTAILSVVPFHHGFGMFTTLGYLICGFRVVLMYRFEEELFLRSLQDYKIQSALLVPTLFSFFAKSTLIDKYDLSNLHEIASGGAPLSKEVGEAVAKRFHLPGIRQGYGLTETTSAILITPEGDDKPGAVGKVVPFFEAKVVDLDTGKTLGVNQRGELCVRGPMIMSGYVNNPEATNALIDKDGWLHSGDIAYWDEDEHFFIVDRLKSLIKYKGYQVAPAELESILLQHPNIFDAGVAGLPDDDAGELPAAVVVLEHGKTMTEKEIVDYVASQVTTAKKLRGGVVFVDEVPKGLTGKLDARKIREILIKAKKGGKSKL

BJ [5] = assay: cells; type: functional, cell-based; conditions: Homo sapiens
HEK293 [6] = assay: cells; type: functional, cell-based; conditions: Homo sapiens
BJ [7] = assay: BJ-TERT-LT-ST fibroblast viability loss – cell-based, RAS-independent, luminescence, dose response (AID 1935); type: functional; conditions: Homo sapiens;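 also: BJ fibroblasts immortalized with TERT plus LT and ST oncogenes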
[8] = luciferase reporter signal suppression in cells – H4 neuroglioma cells, luminescence, dose response (AID 1990); type: functional, cell-based
BJ [9] = assay: BJ-TERT fibroblast viability loss – cell-based, RAS-independent, luminescence, dose response (AID 1933); type: functional; conditions: Homo sapiens
HEK293 [10] = assay: inhibition of NOD1-driven NF-kB reporter – cell-based, luminescence, uHTS, primary screen (AID 1578); type: functional; conditions: Homo sapiens
HEK293 [11] = assay: cells; type: functional, cell-based; conditions: Homo sapiens; remark: listed apart in the source
HT-1080 = assay: HT1080 cell viability loss – fluorescence readout (AID 620); type: functional, cell-based; conditions: Homo sapiens
[12] = Counterscreen for IDE inhibitors: Luminescence-based cell-based high throughput dose response assay to identify compounds that are cytotoxic to HEK cells. [Related pubchem assays: 434962 (Primary screen (IDE inhibitors in singlicate)), 449730 (Counterscreen (Cytotoxicity in triplicate)), 435028 (Confirmation (IDE inhibitors in triplicate)) …; type: functional; conditions: HEK293
Vasopressin V1a receptor = Vasopressin V1a receptor (Homo sapiens, UniProt P37288); assay: Fluorescence-based cell-based high throughput dose response screening assay for agonists of the vasopressin 1 receptor (V1R).; type: functional
Chain of Vasopressin V1a receptor (P37288 whole entry): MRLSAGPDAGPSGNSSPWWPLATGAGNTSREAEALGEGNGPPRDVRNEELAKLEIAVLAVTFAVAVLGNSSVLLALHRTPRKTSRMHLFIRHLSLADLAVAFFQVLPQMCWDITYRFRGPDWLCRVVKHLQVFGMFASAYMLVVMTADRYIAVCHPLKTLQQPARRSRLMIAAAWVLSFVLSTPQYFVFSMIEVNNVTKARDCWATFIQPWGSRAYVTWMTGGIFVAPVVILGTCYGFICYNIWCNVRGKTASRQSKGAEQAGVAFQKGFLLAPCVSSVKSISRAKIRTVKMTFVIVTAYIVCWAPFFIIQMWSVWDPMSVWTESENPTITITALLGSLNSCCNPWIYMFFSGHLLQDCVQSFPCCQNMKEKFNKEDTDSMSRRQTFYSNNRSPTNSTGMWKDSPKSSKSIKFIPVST

Oxytocin receptor = Oxytocin receptor (Homo sapiens, UniProt P30559); assay: Counterscreen for vasopressin 1 receptor (V1R) agonists: Fluorescence-based cell-based high throughput dose response assay for agonists of the Oxytocin Receptor (OXTR). [Related pubchem assays: 2435 (Primary screen (OXTR agonists in singlicate)), 434964 (Confirmation screen (V1R agonists in triplicate)), 434969 (Counterscreen (OXTR agonists in …; type: functional
Chain of Oxytocin receptor (P30559 whole entry): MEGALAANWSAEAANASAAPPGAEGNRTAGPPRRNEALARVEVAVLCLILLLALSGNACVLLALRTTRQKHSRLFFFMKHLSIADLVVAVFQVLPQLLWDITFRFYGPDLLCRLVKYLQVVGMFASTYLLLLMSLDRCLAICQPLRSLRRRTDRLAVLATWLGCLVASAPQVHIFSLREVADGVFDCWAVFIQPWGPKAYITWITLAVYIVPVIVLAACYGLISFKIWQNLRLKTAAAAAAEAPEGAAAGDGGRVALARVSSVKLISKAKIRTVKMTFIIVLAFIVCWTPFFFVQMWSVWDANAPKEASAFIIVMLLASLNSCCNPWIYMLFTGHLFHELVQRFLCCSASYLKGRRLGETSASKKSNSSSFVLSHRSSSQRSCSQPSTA

Insulin-degrading enzyme = target: T1, Insulin-degrading enzyme (Homo sapiens, UniProt P14735); assay: Dose Response: Fluorescence polarization-based cell-based high throughput dose response assay for inhibitors of insulin-degrading enzyme (IDE). [Related pubchem assays: 434962 (Primary screen (IDE inhibitors in singlicate)), 449730 (Counterscreen (Cytotoxicity in triplicate)), 435028 (Confirmation (IDE inhibitors in triplicate)), 434984 (Summary …; type: functional
T1 sequence (P14735 whole entry): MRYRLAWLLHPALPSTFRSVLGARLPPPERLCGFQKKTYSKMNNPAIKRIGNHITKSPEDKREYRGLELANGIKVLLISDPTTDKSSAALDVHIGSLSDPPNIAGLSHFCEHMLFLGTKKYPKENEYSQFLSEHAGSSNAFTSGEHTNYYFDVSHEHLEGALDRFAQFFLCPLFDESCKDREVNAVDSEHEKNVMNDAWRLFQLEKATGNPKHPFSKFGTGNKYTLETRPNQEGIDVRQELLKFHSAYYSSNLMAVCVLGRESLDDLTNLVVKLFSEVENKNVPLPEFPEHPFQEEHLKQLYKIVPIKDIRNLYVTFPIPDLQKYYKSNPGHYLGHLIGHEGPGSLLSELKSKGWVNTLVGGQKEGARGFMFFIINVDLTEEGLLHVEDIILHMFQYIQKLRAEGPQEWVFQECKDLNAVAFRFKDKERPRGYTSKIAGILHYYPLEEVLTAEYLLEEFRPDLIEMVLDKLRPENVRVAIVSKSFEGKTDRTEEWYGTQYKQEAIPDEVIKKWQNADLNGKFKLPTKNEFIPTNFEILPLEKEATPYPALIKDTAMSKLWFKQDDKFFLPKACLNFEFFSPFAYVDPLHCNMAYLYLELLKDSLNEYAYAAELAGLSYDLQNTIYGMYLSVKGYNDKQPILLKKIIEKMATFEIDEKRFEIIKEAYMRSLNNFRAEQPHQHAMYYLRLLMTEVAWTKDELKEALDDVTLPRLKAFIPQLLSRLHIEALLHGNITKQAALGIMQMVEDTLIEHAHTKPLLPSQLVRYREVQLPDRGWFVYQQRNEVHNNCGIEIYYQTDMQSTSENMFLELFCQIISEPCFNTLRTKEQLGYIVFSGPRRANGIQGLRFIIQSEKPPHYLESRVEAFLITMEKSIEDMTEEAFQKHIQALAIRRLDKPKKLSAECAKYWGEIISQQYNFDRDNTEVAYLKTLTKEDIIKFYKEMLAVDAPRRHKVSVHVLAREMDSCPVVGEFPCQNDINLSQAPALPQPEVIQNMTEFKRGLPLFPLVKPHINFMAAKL

Estrogen receptor = target: T2, Estrogen receptor (Homo sapiens, UniProt P03372);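 also: potency for inhibiting coactivator peptide recruitment to the receptor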
T2 sequence (P03372 whole entry): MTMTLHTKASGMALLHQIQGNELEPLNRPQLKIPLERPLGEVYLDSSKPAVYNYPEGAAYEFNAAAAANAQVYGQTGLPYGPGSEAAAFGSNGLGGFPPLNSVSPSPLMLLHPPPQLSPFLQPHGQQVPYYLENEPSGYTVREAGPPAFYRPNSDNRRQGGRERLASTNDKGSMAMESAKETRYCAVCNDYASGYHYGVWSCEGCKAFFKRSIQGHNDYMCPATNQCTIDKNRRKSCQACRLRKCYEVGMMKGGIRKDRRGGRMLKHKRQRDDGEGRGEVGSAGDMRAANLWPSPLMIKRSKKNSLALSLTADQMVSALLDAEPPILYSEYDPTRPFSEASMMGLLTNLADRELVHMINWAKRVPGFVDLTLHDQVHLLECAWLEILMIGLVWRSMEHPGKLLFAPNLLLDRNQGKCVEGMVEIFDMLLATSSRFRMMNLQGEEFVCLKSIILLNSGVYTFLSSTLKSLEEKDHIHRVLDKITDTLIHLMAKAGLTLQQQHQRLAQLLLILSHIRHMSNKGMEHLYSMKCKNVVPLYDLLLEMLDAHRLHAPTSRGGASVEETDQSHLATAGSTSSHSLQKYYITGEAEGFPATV

Bcl-2-like protein 10 = target: T3, Bcl-2-like protein 10 (Homo sapiens, UniProt Q9HD36); assay: Bcl-B/TR3 peptide binding disruption – biochemical, fluorescence polarization, FITC-TR3 peptide, selectivity assay for Bfl-1 inhibitor project, primary screen (AID 748);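 also: fluorescence polarization from a fluorescein-labelled TR3 peptide binding purified Bcl-B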
T3 sequence (Q9HD36 whole entry): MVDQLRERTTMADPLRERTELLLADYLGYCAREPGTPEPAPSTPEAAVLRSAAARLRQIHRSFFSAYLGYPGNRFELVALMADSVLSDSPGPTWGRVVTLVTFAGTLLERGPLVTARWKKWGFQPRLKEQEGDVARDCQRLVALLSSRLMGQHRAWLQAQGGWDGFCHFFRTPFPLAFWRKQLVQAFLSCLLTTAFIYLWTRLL

Structure (SMILES): COc1cccc(Cn2c(NCc3cccnc3)nc3c2c(=O)n(C)c(=O)n3C)c1
IC50 (HEK293 [1]): 14.6 µM (inactive) | EC50 [2]: 5.5 µM (active) | IC50 [3]: 0.425 µM (active) | EC50 [4]: 39.5 µM (active) | EC50 (BJ [5]): 4.58 µM (inconclusive) | IC50 (HEK293 [6]): > 20 µM (inactive) | EC50 (BJ [7]): > 150 µM (inconclusive) | EC50 [8]: 12 µM (active) | EC50 (BJ [9]): > 150 µM (not active) | EC50 (HEK293 [10]): > 20 µM (inactive) | IC50 (HEK293 [11]): > 20 µM (inactive) | EC50 (HT-1080): > 50 µM (not active)

Structure (SMILES): CC(OC(=O)/C(C#N)=C/c1ccc(N(C)C)cc1)C(=O)N(C)Cc1ccccc1 (stereo not drawn)
IC50 [12]: 16.5 µM (not active) | EC50 (Vasopressin V1a receptor): > 3.32 µM (active) | EC50 (Oxytocin receptor): > 9.97 µM (active) | IC50 (Insulin-degrading enzyme): 12.8 µM (not active)

IC50 (Estrogen receptor): 40.3 µM (not active) | IC50 (Bcl-2-like protein 10): 37.8 µM (active)
Structure (SMILES): CCOC(=O)C1=C(C)S/C(=C\N(C)C)C1=O
